US8975398B2, “NAMPT inhibitors” (AbbVie Inc., priority 2012, dated 2015)

These molecules were tested on PC3 cells (assay: NAMPT Cell Proliferation Assay (Cell Titer Glo; also performed in the presence of 0.3 mM nicotinamide mononucleotide)). Settings: Homo sapiens, PC-3, 120 h, 5 days incubation, cell viability by Cell Titer Glo.
Format: cell-based
Protocol: NAMPT Cell Proliferation Assay
PC3 cells were seeded in 96-well black plates (Corning #3904) at 500 cells/well in 90 μl of RPMI media containing 10% heat-inactivated FBS and incubated overnight at 37° C. and 5% CO2 to allow cells to attach to wells. The following day, test compounds were serially diluted in neat DMSO to 1000× final concentrations prior to dilution with RPMI media to 10× and 1% DMSO. Ten μL of the 10× compounds were then transferred to wells containing cells to produce a dose response of 10-fold dilutions from 10 μM to 1×10^−5 μM. Cells were incubated for 5 days at 37° C. and 5% CO2, then cell viability was measured using Cell Titer Glo reagent (Promega #G7571). Percent inhibition values were calculated and fitted to a sigmoidal dose response curves using Assay Explorer software to determine IC50s.

Compound | IC50 [nM]
CCC(C)CC(=O)N1CCC(Cc2ccc(NC(=O)C3CN(c4cccnn4)C3)cc2)CC1 (stereo not drawn) [Example 964, N-(4-{[1-(3-methylpentanoyl)piperidin-4-yl]methyl}phenyl)-1-(pyridazin-3-yl)azetidine-3-carboxamide] | 1.84
CC(C)(C)Cn1cc(-c2ccc(NC(=O)C3CN(c4ccc(Cl)nn4)C3)cc2)cn1 [Example 875, 1-(6-chloropyridazin-3-yl)-N-{4-[1-(2,2-dimethylpropyl)-1H-pyrazol-4-yl]phenyl}azetidine-3-carboxamide] | > 10000
C=CCC(=O)N1CCC(Cc2ccc(NC(=O)C3CN(c4cccnn4)C3)cc2)CC1 [Example 950, N-(4-{[1-(but-3-enoyl)piperidin-4-yl]methyl}phenyl)-1-(pyridazin-3-yl)azetidine-3-carboxamide] | 6.06
C#CCCC(=O)N1CCC(Cc2ccc(NC(=O)C3CN(c4cccnn4)C3)cc2)CC1 [Example 941, N-(4-{[1-(pent-4-ynoyl)piperidin-4-yl]methyl}phenyl)-1-(pyridazin-3-yl)azetidine-3-carboxamide] | 2.1
O=C(Nc1ccc(CC2CCN(C(=O)C3CCC3)CC2)cc1)C1CN(c2cccnn2)C1 [Example 960, N-(4-{[1-(cyclobutylcarbonyl)piperidin-4-yl]methyl}phenyl)-1-(pyridazin-3-yl)azetidine-3-carboxamide] | 2.86
CC(C)(C)CNC(=O)c1ccc(NC(=O)C2CN(c3cccnn3)C2)cc1 [Example 973, N-{4-[(2,2-dimethylpropyl)carbamoyl]phenyl}-1-(pyridazin-3-yl)azetidine-3-carboxamide] | 5.53
O=C(NC1CCCC1)c1ccc(NC(=O)C2CN(c3cccnn3)C2)cc1 [Example 1005, N-[4-(cyclopentylcarbamoyl)phenyl]-1-(pyridazin-3-yl)azetidine-3-carboxamide] | 592
O=C(Nc1ccc(CC2CCN(C(=O)c3ccco3)CC2)cc1)C1CN(c2cccnn2)C1 [Example 952, N-(4-{[1-(furan-2-ylcarbonyl)piperidin-4-yl]methyl}phenyl)-1-(pyridazin-3-yl)azetidine-3-carboxamide] | 2.17
COC(C)(C)CNC(=O)c1ccc(NC(=O)C2CN(c3cccnn3)C2)cc1 [Example 994, N-{4-[(2-methoxy-2-methylpropyl)carbamoyl]phenyl}-1-(pyridazin-3-yl)azetidine-3-carboxamide] | 59
CCC(CC)C(=O)N1CCC(Cc2ccc(NC(=O)C3CN(c4cccnn4)C3)cc2)CC1 [Example 899, N-(4-{[1-(2-ethylbutanoyl)piperidin-4-yl]methyl}phenyl)-1-(pyridazin-3-yl)azetidine-3-carboxamide] | 0.401
O=C(Nc1ccc(C2CCN(C(=O)CC(F)(F)F)CC2)c(F)c1)C1CN(c2cccnn2)C1 [Example 881, N-{3-fluoro-4-[1-(3,3,3-trifluoropropanoyl)piperidin-4-yl]phenyl}-1-(pyridazin-3-yl)azetidine-3-carboxamide] | 8.18
CCCCC(=O)N1CCC(Cc2ccc(NC(=O)C3CN(c4cccnn4)C3)cc2)CC1 [Example 961, N-{4-[(1-pentanoylpiperidin-4-yl)methyl]phenyl}-1-(pyridazin-3-yl)azetidine-3-carboxamide] | 5.57
CC1(CNC(=O)c2ccc(NC(=O)C3CN(c4cccnn4)C3)cc2)COC1 [Example 999, N-(4-{[(3-methyloxetan-3-yl)methyl]carbamoyl}phenyl)-1-(pyridazin-3-yl)azetidine-3-carboxamide] | 250
O=C(Nc1ccsc1)c1ccc(NC(=O)C2CN(c3cccnn3)C2)cc1 [Example 984, 1-(pyridazin-3-yl)-N-[4-(thiophen-3-ylcarbamoyl)phenyl]azetidine-3-carboxamide] | 696
C[C@@H](NC(=O)c1ccc(NC(=O)C2CN(c3cccnn3)C2)cc1)C1CC1 [Example 985, N-(4-{[(1R)-1-cyclopropylethyl]carbamoyl}phenyl)-1-(pyridazin-3-yl)azetidine-3-carboxamide] | 635
O=C(Nc1ccc(CC2CCN(C(=O)C3CCCCC3)CC2)cc1)C1CN(c2cccnn2)C1 [Example 965, N-(4-{[1-(cyclohexylcarbonyl)piperidin-4-yl]methyl}phenyl)-1-(pyridazin-3-yl)azetidine-3-carboxamide] | 2.6
O=C(N[C@@H]1CCOC1)c1ccc(NC(=O)C2CN(c3cccnn3)C2)cc1 [Example 1022, 1-(pyridazin-3-yl)-N-{4-[(3R)-tetrahydrofuran-3-ylcarbamoyl]phenyl}azetidine-3-carboxamide] | 8160
O=C(NC1(C2CC2)CC1)c1ccc(NC(=O)C2CN(c3cccnn3)C2)cc1 [Example 983, N-{4-[1,1′-bi(cyclopropyl)-1-ylcarbamoyl]phenyl}-1-(pyridazin-3-yl)azetidine-3-carboxamide] | 604
CC1(NC(=O)c2ccc(NC(=O)C3CN(c4cccnn4)C3)cc2)CCC1 [Example 1011, N-{4-[(1-methylcyclobutyl)carbamoyl]phenyl}-1-(pyridazin-3-yl)azetidine-3-carboxamide] | 113
O=C(Nc1ccccc1F)c1ccc(NC(=O)C2CN(c3cccnn3)C2)cc1 [Example 1010, N-{4-[(2-fluorophenyl)carbamoyl]phenyl}-1-(pyridazin-3-yl)azetidine-3-carboxamide] | 70.9
Cn1nc(C(F)(F)F)cc1-c1ccc(NC(=O)C2CN(c3cccnn3)C2)cc1 [Example 874, N-{4-[1-methyl-3-(trifluoromethyl)-1H-pyrazol-5-yl]phenyl}-1-(pyridazin-3-yl)azetidine-3-carboxamide] | 71.1
O=C(Nc1ccc(F)cc1)c1ccc(NC(=O)C2CN(c3cccnn3)C2)cc1 [Example 1009, N-{4-[(4-fluorophenyl)carbamoyl]phenyl}-1-(pyridazin-3-yl)azetidine-3-carboxamide] | 81.8
Cc1ccc(N2CC(C(=O)Nc3ccc(O[C@@H]4CCN(C(=O)C(C)C)C4)cc3)C2)nn1 [Example 916, N-(4-{[(3R)-1-(2-methylpropanoyl)pyrrolidin-3-yl]oxy}phenyl)-1-(6-methylpyridazin-3-yl)azetidine-3-carboxamide] | 646
CC1(C)CC(NC(=O)c2ccc(NC(=O)C3CN(c4cccnn4)C3)cc2)CCO1 (stereo not drawn) [Example 980, N-{4-[(2,2-dimethyltetrahydro-2H-pyran-4-yl)carbamoyl]phenyl}-1-(pyridazin-3-yl)azetidine-3-carboxamide] | 82.2
O=C(NC1CCC1)c1ccc(NC(=O)C2CN(c3cccnn3)C2)cc1 [Example 992, N-[4-(cyclobutylcarbamoyl)phenyl]-1-(pyridazin-3-yl)azetidine-3-carboxamide] | 1510
O=C(NCC1CCOCC1)c1ccc(NC(=O)C2CN(c3cccnn3)C2)cc1 [Example 1001, 1-(pyridazin-3-yl)-N-{4-[(tetrahydro-2H-pyran-4-ylmethyl)carbamoyl]phenyl}azetidine-3-carboxamide] | 53.2
Cc1ccsc1C(=O)N1CCC(Cc2ccc(NC(=O)C3CN(c4cccnn4)C3)cc2)CC1 [Example 940, N-[4-({1-[(3-methylthiophen-2-yl)carbonyl]piperidin-4-yl}methyl)phenyl]-1-(pyridazin-3-yl)azetidine-3-carboxamide] | 1.97
